This note sets out measurements from patent US20220213060A1, “Crystal Form of Quinazolinone Compound and Preparation Method Therefor” (Luoxin Healthcare Science and Technology Development …, priority 2019, published 2022).

One series has as its target T1, PI3Kδ (Homo sapiens, UniProt O00329).
T1 construct: purchased Millipore 14-604-K
Put plainly: In vitro enzymatic activity test (ADP-Glo lipid kinase), PI3Kδ. Format: biochemical. Particulars: inhibitory activity against PI3Kα relative to PI3Kδ. Here is the method:
(§1) The lipid kinase reaction was carried out in a suitable substrate and under ATP conditions, then the activity of the kinase was detected by ADP-Glo™ kit in two steps. Step 1: the kinase reaction was terminated, in which the residual ATP was completely removed and only ADP was retained; step 2: kinase detection reagent was added to convert ADP to ATP, accompanied by fluorescein/luciferase reaction. Finally, the fluorescence value output was converted into kinase activity.
(§2) Experimental Materials and Equipment:
(§3) 2) Kit: ADP-Glo™ lipid kinase and PIP2:3PS kit (Promega #V1792)
(§4) The reagent kit contains: 1 mM PIP2:3PS, 10× lipid dilution buffer, 1 M magnesium chloride, 10 mM ATP, 10 mM ADP, ADP-Glo reagent, detection buffer and detection substrate.
(§5) 3) Reaction plate: OptiPlate-384, white and transparent (PerkinElmer #6007299)
(§6) 1) 10× reaction buffer: 500 mM HEPES, pH 7.5, 500 mM NaCl, […]; BSA: 10% stock solution, self-made
(§7) 2) Final test system conditions: 1× reaction system: 50 mM of HEPES, 50 mM of NaCl, 3 mM of MgCl2, 0.01% BSA (freshly prepared on the day of experiment), 1% DMSO (v/v)+/−compound
(§8) 3) Reaction system: 3 μL of mixture of enzyme and substrate (1:1)+2 μL of ATP/MgCl2 mixture+5 μL of ADP-Glo reagent+10 μL of detection reagent.
(§9) The specific experimental operations were as follows: […]
(§10) (16) Fluorescence values were measured on the Envision instrument.

For another series, the target named is T2, PI3Kγ (Homo sapiens, UniProt P48736).
T2 construct: purchased Millipore 14-558-K
T2 sequence (P48736 whole entry): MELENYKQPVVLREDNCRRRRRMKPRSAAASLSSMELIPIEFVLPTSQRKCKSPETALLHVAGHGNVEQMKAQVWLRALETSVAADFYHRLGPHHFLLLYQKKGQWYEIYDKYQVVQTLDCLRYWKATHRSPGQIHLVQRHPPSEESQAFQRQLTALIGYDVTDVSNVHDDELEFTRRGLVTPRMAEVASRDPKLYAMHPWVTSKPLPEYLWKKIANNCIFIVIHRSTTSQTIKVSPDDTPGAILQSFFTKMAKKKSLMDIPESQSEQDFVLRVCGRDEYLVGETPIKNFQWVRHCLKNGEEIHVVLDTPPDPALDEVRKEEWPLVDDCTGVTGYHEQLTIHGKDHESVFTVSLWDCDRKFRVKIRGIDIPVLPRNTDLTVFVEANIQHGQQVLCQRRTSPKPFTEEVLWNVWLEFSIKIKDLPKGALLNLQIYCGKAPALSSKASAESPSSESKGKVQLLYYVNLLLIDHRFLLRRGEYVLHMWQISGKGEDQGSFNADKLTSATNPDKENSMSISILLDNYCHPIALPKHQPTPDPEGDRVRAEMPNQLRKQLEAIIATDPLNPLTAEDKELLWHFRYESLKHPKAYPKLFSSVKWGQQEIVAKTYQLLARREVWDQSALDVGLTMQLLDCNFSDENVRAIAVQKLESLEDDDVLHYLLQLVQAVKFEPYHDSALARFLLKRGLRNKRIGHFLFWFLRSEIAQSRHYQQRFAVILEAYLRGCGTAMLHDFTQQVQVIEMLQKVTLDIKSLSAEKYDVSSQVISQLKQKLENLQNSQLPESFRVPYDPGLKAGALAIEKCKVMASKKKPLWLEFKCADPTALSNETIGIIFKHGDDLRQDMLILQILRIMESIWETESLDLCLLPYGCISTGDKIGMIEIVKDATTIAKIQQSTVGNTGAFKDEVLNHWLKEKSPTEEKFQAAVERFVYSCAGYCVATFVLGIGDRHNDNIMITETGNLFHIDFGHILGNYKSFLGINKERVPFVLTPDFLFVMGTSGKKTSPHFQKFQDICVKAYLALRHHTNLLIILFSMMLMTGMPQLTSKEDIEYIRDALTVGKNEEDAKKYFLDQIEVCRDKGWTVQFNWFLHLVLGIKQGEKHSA
The experiment in a line: In vitro enzymatic activity test (ADP-Glo lipid kinase), PI3Kγ. Format: biochemical. Particulars: inhibitory activity against PI3Kα relative to PI3Kγ. Here is the method: as §1, §2, §3, §4, §5, §6, §7, §8, §9, §10
In general terms: In ADP-Glo the light output rises with the ADP produced.

Series [1] relates to human breast cancer T47D (PIK3CA H1047R mutation). Put plainly: In vivo pharmacodynamic study, T47D nude mouse subcutaneous xenograft tumor model. More on the design: species or system BALB/c nude mice. Here is the method:
The phenotype of human T47D breast cancer cells is HR+/HER2−, and it carries PIK3CA H1047R mutation. This experiment evaluated the efficacy of the crystal form A of the compound represented by formula (I) in a human breast cancer xenograft tumor model.
Cell culture: Human breast cancer T47D cells were cultured in vitro in a single layer, the culture condition was RPMI-1640 medium with 0.2 U/mL bovine insulin and 10% fetal bovine serum, and the cells were incubated in 5% CO2 at 37° C. Digestion and passage treatment with trypsin-EDTA was carried out twice a week. When the cell saturation was 80%-90% and the number reached the requirement, the cells were collected, counted and inoculated.
Animals: BALB/c nude mice, female, 6-8 weeks old, weighing 18-20 g. A total of 75 animals were required, and provided by Shanghai Bikai experimental animal Co., Ltd or other qualified suppliers.
Tumor inoculation: Estrogen tablets (0.18 mg/tablet) were subcutaneously inoculated on the left back of each mouse. Three days later, 0.2 mL (10×10^6 cells) of T47D cells (with matrigel in a volume ratio of 1:1) were subcutaneously inoculated on the right back of each mouse, group administration was started when the average tumor volume reached 150 mm^3-200 mm^3.
Tumor-bearing mice in each administration group had good tolerance to the tested compounds.

The nature of series [2]: PK test of plasma on the last day of administration in the BT-474 xenograft study. Format: in vivo, BALB/c nude mice. Particulars: BT-474 tumor-bearing nude mice. Here is the method:
0.5-1 hours after administration, the blood concentration reached the peak. The plasma exposure at the dose to play the effect was 69 300 nM*h.

The mark [3] stands for this setting: 10 mg/kg, oral once a day for 42 days.
The mark [4] stands for this setting: 10 mg/kg, oral once a day for 42 days, listed as crystal form A of the compound represented by formula (I).
[5] abbreviates: 20 mg/kg, oral once a day for 42 days.
Setting [6] is: 20 mg/kg, oral once a day for 42 days, listed as crystal form A of the compound represented by formula (I).
Setting [7] is: 40 mg/kg, oral once a day for 42 days.
Where [8] appears, read: 40 mg/kg, oral once a day for 42 days, listed as crystal form A of the compound represented by formula (I).

T1 sequence (O00329 whole entry): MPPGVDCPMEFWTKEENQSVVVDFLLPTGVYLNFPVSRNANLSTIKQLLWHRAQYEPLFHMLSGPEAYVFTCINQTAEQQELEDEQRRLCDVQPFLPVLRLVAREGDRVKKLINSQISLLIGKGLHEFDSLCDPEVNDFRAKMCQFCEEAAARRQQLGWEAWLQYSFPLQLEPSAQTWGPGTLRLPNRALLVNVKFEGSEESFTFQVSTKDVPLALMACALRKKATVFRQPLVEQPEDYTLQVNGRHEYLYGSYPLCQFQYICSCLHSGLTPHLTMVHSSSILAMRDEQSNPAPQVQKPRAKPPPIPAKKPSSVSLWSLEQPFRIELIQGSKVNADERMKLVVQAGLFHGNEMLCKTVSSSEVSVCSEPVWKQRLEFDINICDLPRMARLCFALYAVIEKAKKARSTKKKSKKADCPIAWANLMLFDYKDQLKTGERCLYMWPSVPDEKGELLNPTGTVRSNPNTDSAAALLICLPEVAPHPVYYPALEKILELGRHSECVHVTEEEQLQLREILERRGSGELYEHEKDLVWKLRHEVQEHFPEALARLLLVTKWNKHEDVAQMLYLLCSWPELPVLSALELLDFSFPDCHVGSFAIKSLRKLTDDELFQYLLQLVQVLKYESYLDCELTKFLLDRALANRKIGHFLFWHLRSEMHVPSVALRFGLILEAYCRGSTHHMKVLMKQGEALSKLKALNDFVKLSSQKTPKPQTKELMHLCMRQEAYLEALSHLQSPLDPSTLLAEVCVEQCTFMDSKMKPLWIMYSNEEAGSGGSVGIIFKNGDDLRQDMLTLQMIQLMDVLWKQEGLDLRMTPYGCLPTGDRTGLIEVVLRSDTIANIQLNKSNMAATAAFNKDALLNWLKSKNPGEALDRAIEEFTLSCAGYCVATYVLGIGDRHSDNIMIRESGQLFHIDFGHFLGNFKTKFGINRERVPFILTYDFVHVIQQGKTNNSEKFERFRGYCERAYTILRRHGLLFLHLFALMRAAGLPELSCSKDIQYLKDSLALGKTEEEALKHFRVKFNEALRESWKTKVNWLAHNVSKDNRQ
T1 sequence (P27986 whole entry partner): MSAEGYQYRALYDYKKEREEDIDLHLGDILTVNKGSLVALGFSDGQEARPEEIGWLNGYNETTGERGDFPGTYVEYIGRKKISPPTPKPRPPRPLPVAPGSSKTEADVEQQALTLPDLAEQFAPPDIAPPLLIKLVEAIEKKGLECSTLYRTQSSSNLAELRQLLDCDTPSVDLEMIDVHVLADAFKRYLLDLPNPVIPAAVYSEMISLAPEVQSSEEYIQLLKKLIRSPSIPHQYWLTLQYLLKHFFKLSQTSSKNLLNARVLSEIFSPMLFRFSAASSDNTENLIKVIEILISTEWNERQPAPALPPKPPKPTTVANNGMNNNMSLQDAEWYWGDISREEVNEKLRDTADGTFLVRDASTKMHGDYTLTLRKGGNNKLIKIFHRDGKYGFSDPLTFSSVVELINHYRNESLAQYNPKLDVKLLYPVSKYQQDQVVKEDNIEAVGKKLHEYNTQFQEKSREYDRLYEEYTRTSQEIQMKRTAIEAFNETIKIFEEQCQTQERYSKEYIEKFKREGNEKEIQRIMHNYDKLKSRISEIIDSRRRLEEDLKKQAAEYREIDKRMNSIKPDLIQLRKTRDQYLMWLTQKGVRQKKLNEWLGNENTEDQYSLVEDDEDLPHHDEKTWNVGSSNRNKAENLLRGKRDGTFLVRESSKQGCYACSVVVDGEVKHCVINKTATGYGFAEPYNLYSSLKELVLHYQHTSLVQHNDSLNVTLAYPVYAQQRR

Take `CNC(=O)[C@H](C)Cn1cnc2ccc(-c3cnc(OC)c(NS(=O)(=O)c4ccc(F)cc4F)c3)cc2c1=O`: the “Selectivity PI3Kα/δ (kinase)” value at PI3Kδ worked out at 7.44 times. The “Selectivity PI3Kα/γ (kinase)” value at PI3Kγ was determined as 6.61 times. For the same compound, the “Anti-tumor effect (in words)” value is “strong anti-tumor effect” in series [1] (10 mg/kg group), “strong anti-tumor effect” in series [1] (20 mg/kg group) and “significant anti-tumor effects” in series [1] (40 mg/kg group). The T/C % came out at 50.40% in series [1] (setting [3]); 50.40% in series [1] (setting [4]); 44.70% in series [1] (setting [5]); 44.70% in series [1] (setting [6]); 37.91% in series [1] (setting [7]); 37.91% in series [1] (setting [8]). Further, the TGI % in series [1] (setting [3]) came to 67.58%; in series [1] (setting [4]), 67.58%; in series [1] (setting [5]) it was 72.56%; in series [1] (setting [6]) it was 72.56%; in series [1] (setting [7]), 84.71%; in series [1] (setting [8]), 84.71%. In addition, the “Dose to play the effect” value in series [1] (oral once a day for 42 days) stood at 10 mg/kg. Besides, the “Plasma exposure at the dose to play the effect” value in series [2] (oral 10 mg/kg, last day of administration) is 69 300 nM*h. Besides, the “Plasma exposure with the increase of administration dose” value in series [2] (oral 10, 20, 40 mg/kg) is reported as “increased linearly”. The “Time after administration at which the blood concentration reached the peak” value in series [2] (oral, last day of administration) fell in the range of 0.5 to 1 h.
